Earlier results on one compound are cited in patent US20230413813A1, “ANTIMICROBIAL COMPOSITION COMPRISING A POLYIMIDE” (The Procter & Gamble Company, priority 2022, published 2023).

Consider `CC(=O)O.CC(=O)O.NC(=N\CCCCCC/N=C(N)/N=C(\N)Nc1ccc(Cl)cc1)/N=C(\N)Nc1ccc(Cl)cc1` [Chlorhexidine diaceate, Chlorhexidine diacetate], for which the solubility in water is ~1%.
